# Experimental data published in US12590123B2, “Compounds and methods for treating cancer, viral infections, and allergic conditions” (Washington University, priority 2019, dated 2026).
# Columns and labels:
# Format in all cases: biochemical
# [1] = target: T1, matriptase (Homo sapiens, UniProt Q9Y5Y6); experiment: Fluorescent kinetic enzyme assay of matriptase activity (Boc-QAR-AMC); settings: Table 2; read-out: Matriptase (IC50 nM)
# T1 construct: purchased R&D Systems 3946-SE-010
# T1 sequence (Q9Y5Y6 615-855 limits assumed): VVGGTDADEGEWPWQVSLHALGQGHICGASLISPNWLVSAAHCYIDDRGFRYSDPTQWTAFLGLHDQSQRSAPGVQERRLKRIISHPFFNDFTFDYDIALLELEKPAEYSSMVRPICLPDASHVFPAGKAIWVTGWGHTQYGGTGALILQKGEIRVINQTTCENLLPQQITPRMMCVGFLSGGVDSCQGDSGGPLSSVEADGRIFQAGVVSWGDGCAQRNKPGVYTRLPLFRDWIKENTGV
# [2] = target: T2, KLK5 (Homo sapiens, UniProt Q9Y337); experiment: Fluorescent kinetic enzyme inhibitor assay of KLK5 (Boc-VPR-AMC); settings: Table 4; 7.5 nM KLK5, 100 μM substrate
# T2 construct: purchased R&D Systems 1108-SE-010
# T2 sequence (Q9Y337 23-293): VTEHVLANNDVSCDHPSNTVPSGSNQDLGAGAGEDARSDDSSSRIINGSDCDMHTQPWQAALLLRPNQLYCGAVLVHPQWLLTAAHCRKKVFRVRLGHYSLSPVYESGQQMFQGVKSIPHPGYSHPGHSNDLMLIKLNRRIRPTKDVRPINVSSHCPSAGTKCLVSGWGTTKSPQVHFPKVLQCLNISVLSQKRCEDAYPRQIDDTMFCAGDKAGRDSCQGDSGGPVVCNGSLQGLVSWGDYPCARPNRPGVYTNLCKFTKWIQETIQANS
# Method: Fluorescent Kinetic Enzyme Inhibitor Assay of KLK5: Inhibitors (11-pt serial dilutions, 0-20 μM final concentration in reaction) were serially diluted in DMSO (2% DMSO final concentration) and then mixed with KLK5 (#1108-SE-010, R&D Systems, Minneapolis, Minnesota) in black 384 well plates (Corning #3575. Corning, NY). The final assay concentration for KLK5 is 7.5 nM in TNC buffer (25 mM Tris, 150 mM NaCl, 5 mM CaCl2), 0.01% Triton X-100, pH 8). After thirty minutes incubation at room temperature, Boc-VPR-AMC substrate was added. The final substrate concentrations for assay is 100 μM. Changes in fluorescence (excitation at 380 nm and emission at 460 nm) were measured at room temperature over time in a Biotek Synergy 2 plate reader (Winnoski, VT). Using GraphPad Prism version 6.04 software program, (GraphPad Software, San Diego, CA, graphpad.com), a four parameter curve fit was used to determine the inhibitor IC50s from a plot of the mean reaction velocity versus the inhibitor concentration. The IC50 values represent the average of three or more separate experimental determinations.
# [3] = target: T3, recombinant HGFA serine protease domain (Homo sapiens, UniProt Q04756); experiment: Fluorescent kinetic enzyme assay of HGFA activity (Boc-QLR-AMC); settings: Table 2; read-out: HGFA (IC50 nM)
# T3 construct: His6 tag (N); seven amino acid spacer plus TEV cleavage site (N); made in house; host or cells: High 5 insect cells (baculovirus; Sf9 for virus production)
# T3 sequence (Q04756 373-655): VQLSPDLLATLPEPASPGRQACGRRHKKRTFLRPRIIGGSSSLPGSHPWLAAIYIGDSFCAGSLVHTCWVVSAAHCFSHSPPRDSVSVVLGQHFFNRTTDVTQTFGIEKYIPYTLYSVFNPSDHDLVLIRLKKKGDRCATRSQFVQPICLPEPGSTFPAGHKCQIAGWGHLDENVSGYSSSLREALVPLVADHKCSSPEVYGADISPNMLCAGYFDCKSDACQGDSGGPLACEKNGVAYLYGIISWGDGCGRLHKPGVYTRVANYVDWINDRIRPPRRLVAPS
# Method in brief: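 His-tagged HGFA protease domain from baculovirus-infected High 5 cells, 6.25 nM in pH 8 Tris/NaCl/5 mM CaCl2/0.01% Triton X-100 with 2% DMSO. IC50 from four-parameter velocity fit (≥3 runs); apparent Ki by Cheng–Prusoff.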
# [4] = target: T4, activated hepsin (Homo sapiens, UniProt P05981); experiment: Fluorescent kinetic enzyme assay of hepsin activity (Boc-QAR-AMC); settings: Table 2; read-out: Hepsin (IC50 nM)
# T4 construct: purchased R&D Systems 4776-SE-010
# T4 sequence (P05981 163-417 limits assumed): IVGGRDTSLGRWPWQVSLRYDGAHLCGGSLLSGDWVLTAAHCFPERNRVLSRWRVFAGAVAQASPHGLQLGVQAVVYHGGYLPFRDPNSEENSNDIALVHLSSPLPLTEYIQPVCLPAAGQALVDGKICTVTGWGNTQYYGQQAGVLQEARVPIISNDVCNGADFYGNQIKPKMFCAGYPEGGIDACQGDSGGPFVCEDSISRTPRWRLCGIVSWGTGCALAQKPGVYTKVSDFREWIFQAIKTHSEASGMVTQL
# T4 sequence (P05981 1-162 partner limits assumed): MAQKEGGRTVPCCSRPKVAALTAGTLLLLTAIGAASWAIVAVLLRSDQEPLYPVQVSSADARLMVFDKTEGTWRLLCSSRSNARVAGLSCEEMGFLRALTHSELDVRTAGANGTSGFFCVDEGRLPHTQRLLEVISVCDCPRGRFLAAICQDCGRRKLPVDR
# Method: After thirty minutes of incubation at room temperature, Boc-QLR-AMC substrate was added (HGFA assay) or Boc-QAR-AMC substrate (matriptase, and hepsin assays). […] From a plot of the mean reaction velocity versus the inhibitor concentration, a non-linear four parameter curve fit was performed using GraphPad Prism (GraphPad Software, San Diego, CA) to determine inhibitor IC50s. The IC50 values were determined from the average of three or more separate experimental determinations. Apparent Ki values were calculated using the Cheng and Prusoff equation (Ki=IC50/(1+[S]/Km).
# Inhibitors were pre-incubated with protease followed by the addition of the substrate. Inhibition of substrate proteolysis derived fluorescence was monitored kinetically over a period of one hour.
# [5] = target: Factor Xa (Homo sapiens, UniProt P00742); experiment: Chromogenic kinetic enzyme assay of Factor Xa (S2222); settings: Table 2; chromogenic assay; read-out: Factor Xa* (IC50 nM)
# Sequence of Factor Xa (P00742 235-488 limits assumed): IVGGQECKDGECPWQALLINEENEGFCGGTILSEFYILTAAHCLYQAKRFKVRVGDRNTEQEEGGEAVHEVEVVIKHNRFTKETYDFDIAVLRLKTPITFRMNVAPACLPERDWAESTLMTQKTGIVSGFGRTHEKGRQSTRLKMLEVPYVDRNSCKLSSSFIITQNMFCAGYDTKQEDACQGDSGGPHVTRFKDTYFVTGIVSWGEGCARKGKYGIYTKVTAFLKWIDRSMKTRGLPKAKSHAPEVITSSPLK
# Sequence of Factor Xa (P00742 41-179 partner limits assumed): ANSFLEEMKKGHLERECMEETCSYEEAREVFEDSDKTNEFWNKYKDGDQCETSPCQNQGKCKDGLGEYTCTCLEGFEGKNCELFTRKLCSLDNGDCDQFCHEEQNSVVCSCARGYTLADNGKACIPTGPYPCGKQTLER
Structure (SMILES),IC50 [1] [nM],IC50 [2] [µM],IC50 [3] [nM],IC50 [4] [nM],IC50 [5] [nM]
"CC(=O)N[C@H]1Cc2ccc(cc2)OC/C=C\C[C@@H](C(=O)N[C@@H](CCCNC(=N)N)C(=O)c2nc3ccccc3s2)NC(=O)[C@H](CC(C)C)NC1=O [VD4010, (7S,10S,13S,Z)-13-acetamido-N—((S)-1-(benzo[d]thiazol-2-yl)-5-guanidino-1-oxopentan-2-yl)-10-isobutyl-9,12-dioxo-2-oxa-8,11-diaza-1(1,4)-benzenacyclotetradecaphan-4-ene-7-carboxamide]",3.24,1.83,11.1,0.141,122
CC(=O)N[C@H]1Cc2ccc(cc2)OCCCC[C@@H](C(=O)N[C@@H](CCCNC(=N)N)C(=O)c2nc3ccccc3s2)NC(=O)[C@H](Cc2c[nH]c3ccccc23)NC1=O [VD4158],56.8,3.56,85.2,,
"CC(=O)N[C@H]1Cc2ccc(cc2)OCCCC[C@@H](C(=O)N[C@@H](CCCNC(=N)N)C(=O)c2nc3ccccc3s2)NC(=O)[C@H](Cc2ccccc2)NC1=O [VD4111, (7S,10S,13S)-13-acetamido-N—((S)-1-(benzo[d]thiazol-2-yl)-5-guanidino-1-oxopentan-2-yl)-10-benzyl-9,12-dioxo-2-oxa-8,11-diaza-1(1,4)-benzenacyclotetradecaphane-7-carboxamide]",17,0.647,11.9,0.331,
"CC(=O)N[C@H]1Cc2cn(nn2)CCCC[C@H](C(=O)N[C@@H](CCCNC(=N)N)C(=O)c2nc3ccccc3s2)NC(=O)[C@H](CC(C)C)NC1=O [VD4090, (3S,6S,9R,Z)-3-acetamido-N—((S)-1-(benzo[d]thiazol-2-yl)-5-guanidino-1-oxopentan-2-yl)-6-isobutyl-4,7-dioxo-11H-5,8-diaza-1(4,1)-triazolacyclotridecaphane-9-carboxamide]",39.1,9.39,,14.1,
"CC(=O)N[C@H]1Cc2ccc(cc2)OCCCC[C@@H](C(=O)N[C@@H](CCCNC(=N)N)C(=O)c2nc3ccccc3s2)NC(=O)[C@H](CC(C)C)NC1=O [VD4072, (7S,10S,13S)-13-acetamido-N—((S)-1-(benzo[d]thiazol-2-yl)-5-guanidino-1-oxopentan-2-yl)-10-isobutyl-9,12-dioxo-2-oxa-8,11-diaza-1(1,4)-benzenacyclotetradecaphane-7-carboxamide]",7.76,5.23,7.99,0.175,
